Patent US20260183320A1, “METHOD FOR TREATING CANCER BY COMBINING ALKYLATING AGENT PRODRUG AND CELL CYCLE INHIBITOR” (ASCENTAWITS PHARMACEUTICALS, LTD., priority 2022, published 2026)

Assays:
[1] = tested on: wild-type p53-expressing (H460) cell line; experiment: CTG cell proliferation assay, H460 cell line; type: cell-based; details: for IC50: Homo sapiens, 72 h
Description: (§1) Each CTG cell proliferation assay included the steps as follows: • 1) An H460 or HT29 cell suspension was added to a 96-well plate at 100 μL per well so that each well contained 2000 or 10000 cells. • 2) The cells were incubated overnight at 37° C. in an incubator with 5% CO2. • 3) Treatment with Compounds
(§2) Combination therapy: 1 μL of adavosertib (at four concentrations), AZD7762 (at four concentrations), palbociclib (at four concentrations) or ceralasertib (at three concentrations) was added to each well and shaken gently until homogeneous mixing.
(§3) 7) Chemiluminescence was read for 1000 ms on a multimode microplate reader. • 8) IC50 (half-maximal inhibitory concentration) values of the compounds were calculated using the GraphPad Prism 5 software. 1.

[2] = tested on: p53-deficient (HT29) cell line; experiment: CTG cell proliferation assay, HT29 cell line; type: cell-based; details: for IC50: Homo sapiens, 72 h
Description: as §1, §2, §3

[3] = H460 (wild-type p53), all concentrations
[4] = H460 (wild-type p53), both drugs at low concentrations
[5] = HT29 (p53-deficient), various concentrations, also low

O=[N+]([O-])c1ccc(C(OP(=O)(N2CC2)N2CC2)C(F)(F)F)cc1Oc1ccc(-c2ccc(F)cc2)c(F)c1 (stereo not shown) [AST]
additive cytotoxic effect in combination therapy with AZD7762 ([1]; H460 (wild-type p53), AZD7762 160 nM): certain additive cytotoxic effects
additive cytotoxic effect in combination therapy with adavosertib [1, 3]: did not exhibit any additive toxic effects
additive cytotoxic effect in combination therapy with palbociclib [1, 3]: did not exhibit any significant additive cytotoxic effects
additive cytotoxic effect in combination therapy with AZD7762 [1, 4]: not significant
additive cytotoxic effect in combination therapy with adavosertib [1, 4]: not significant
additive cytotoxic effect in combination therapy with ceralasertib [1, 4]: not significant
additive cytotoxic effect in combination therapy with AZD7762 ([1]; H460 (wild-type p53), medium and high concentrations): certain additive cytotoxic effects
additive cytotoxic effect in combination therapy with ceralasertib ([1]; H460 (wild-type p53), medium or high concentration): certain additive cytotoxic effects
additive cytotoxic effect in combination therapy with adavosertib ([1]; H460 (wild-type p53), medium or high concentrations): certain additive cytotoxic effects
additive cytotoxic effect in combination therapy with AZD7762 ([1]; H460 (wild-type p53), other concentrations than 160 nM AZD7762): did not exhibit any additive cytotoxic effects
Ratio single/combo ([1]; H460, IC50 monotherapy / IC50 with 0.5 nM AZD7762): 1.20
Ratio single/combo ([1]; H460, IC50 monotherapy / IC50 with 0.5 nM adavosertib): 1.24
Ratio single/combo ([1]; H460, IC50 monotherapy / IC50 with 6.4 nM AZD7762): 1.00
Ratio single/combo ([1]; H460, IC50 monotherapy / IC50 with 6.4 nM adavosertib): 0.90
Ratio single/combo ([1]; H460, IC50 monotherapy / IC50 with 160 nM AZD7762): 3.81
Ratio single/combo ([1]; H460, IC50 monotherapy / IC50 with 160 nM adavosertib): 1.19
Ratio single/combo ([1]; H460, IC50 monotherapy / IC50 with 800 nM adavosertib): 1.41
Ratio combo/single ([1]; H460, IC50 with 0.05 nM palbociclib / IC50 monotherapy): 1.08
Ratio combo/single ([1]; H460, IC50 with 0.64 nM palbociclib / IC50 monotherapy): 1.35
Ratio combo/single ([1]; H460, IC50 with 400 nM palbociclib / IC50 monotherapy): 2.55
IC50 ([1]; NCI-H460, 72 h, H460, monotherapy): 4.08 nM
IC50 ([1]; NCI-H460, H460, with 0.05 nM palbociclib (2 h pretreatment)): 4.39 nM
IC50 ([1]; NCI-H460, H460, with 0.5 nM AZD7762 (2 h pretreatment)): 3.4 nM
IC50 ([1]; NCI-H460, H460, with 0.5 nM adavosertib (2 h pretreatment)): 3.29 nM
IC50 ([1]; NCI-H460, H460, with 0.64 nM palbociclib (2 h pretreatment)): 5.5 nM
IC50 ([1]; NCI-H460, H460, with 6.4 nM AZD7762 (2 h pretreatment)): 4.08 nM
IC50 ([1]; NCI-H460, H460, with 6.4 nM adavosertib (2 h pretreatment)): 4.53 nM
IC50 ([1]; NCI-H460, H460, with 160 nM AZD7762 (2 h pretreatment)): 1.07 nM
IC50 ([1]; NCI-H460, H460, with 160 nM adavosertib (2 h pretreatment)): 3.44 nM
IC50 ([1]; NCI-H460, H460, with 400 nM palbociclib (2 h pretreatment)): 10.4 nM
IC50 ([1]; NCI-H460, H460, with 800 nM adavosertib (2 h pretreatment)): 2.89 nM
additive cytotoxic effect in combination therapy with palbociclib ([2]; HT29 (p53-deficient), drugs at low concentrations): certain additive cytotoxic effects
additive cytotoxic effect in combination therapy with ceralasertib ([2]; HT29 (p53-deficient), various concentrations): significant additive cytotoxic effects
additive cytotoxic effect in combination therapy with AZD7762 [2, 5]: significant additive cytotoxic effects
additive cytotoxic effect in combination therapy with adavosertib [2, 5]: significant additive cytotoxic effects
additive cytotoxic effect in combination therapy with palbociclib [2, 5]: significant additive cytotoxic effects
Ratio single/combo ([2]; HT29, IC50 monotherapy / IC50 with 100 nM AZD7762): 95.61
Ratio single/combo ([2]; HT29, IC50 monotherapy / IC50 with 100 nM adavosertib): 44.97
Ratio single/combo ([2]; HT29, IC50 monotherapy / IC50 with 130 nM AZD7762): 105.70
Ratio single/combo ([2]; HT29, IC50 monotherapy / IC50 with 130 nM adavosertib): 95.54
Ratio single/combo ([2]; HT29, IC50 monotherapy / IC50 with 160 nM AZD7762): 107.78
Ratio single/combo ([2]; HT29, IC50 monotherapy / IC50 with 160 nM adavosertib): 114.24
IC50 ([2]; HT-29, 72 h, HT29, monotherapy): 1370 nM
IC50 ([2]; HT-29, HT29, with 50 nM palbociclib (2 h pretreatment)): 1060 nM
IC50 ([2]; HT-29, HT29, with 100 nM AZD7762 (2 h pretreatment)): 14.3 nM
IC50 ([2]; HT-29, HT29, with 100 nM adavosertib (2 h pretreatment)): 30.5 nM
IC50 ([2]; HT-29, HT29, with 130 nM AZD7762 (2 h pretreatment)): 13 nM
IC50 ([2]; HT-29, HT29, with 130 nM adavosertib (2 h pretreatment)): 14.4 nM
IC50 ([2]; HT-29, HT29, with 160 nM AZD7762 (2 h pretreatment)): 12.7 nM
IC50 ([2]; HT-29, HT29, with 160 nM adavosertib (2 h pretreatment)): 12 nM
IC50 ([2]; HT-29, HT29, with 1000 nM palbociclib (2 h pretreatment)): 1740 nM
IC50 ([2]; HT-29, HT29, with 5000 nM palbociclib (2 h pretreatment)): 1570 nM
